ChEMBL document CHEMBL3525904, “Effect of structural variation on aldehyde oxidase-catalyzed oxidation of zoniporide” (Drug Metab Dispos, 2012)
Each block holds one compound with its values, some of them ahead of it.

Experiments:
Type in all cases: ADME, subcellular
Aldehyde oxidase [1] = biological target: T1, Aldehyde oxidase (Homo sapiens, UniProt Q06278); test: Drug level in human liver S9 fraction assessed as aldehyde oxidase-mediated compound formation treated with 10 uM 1-(1H-benzo[d]imidazol-4-yl)-N-carbamimidoyl-5-cyclopropyl-1H-pyrazole-4-carboxamide by spectrometry
T1 sequence (Q06278 whole entry): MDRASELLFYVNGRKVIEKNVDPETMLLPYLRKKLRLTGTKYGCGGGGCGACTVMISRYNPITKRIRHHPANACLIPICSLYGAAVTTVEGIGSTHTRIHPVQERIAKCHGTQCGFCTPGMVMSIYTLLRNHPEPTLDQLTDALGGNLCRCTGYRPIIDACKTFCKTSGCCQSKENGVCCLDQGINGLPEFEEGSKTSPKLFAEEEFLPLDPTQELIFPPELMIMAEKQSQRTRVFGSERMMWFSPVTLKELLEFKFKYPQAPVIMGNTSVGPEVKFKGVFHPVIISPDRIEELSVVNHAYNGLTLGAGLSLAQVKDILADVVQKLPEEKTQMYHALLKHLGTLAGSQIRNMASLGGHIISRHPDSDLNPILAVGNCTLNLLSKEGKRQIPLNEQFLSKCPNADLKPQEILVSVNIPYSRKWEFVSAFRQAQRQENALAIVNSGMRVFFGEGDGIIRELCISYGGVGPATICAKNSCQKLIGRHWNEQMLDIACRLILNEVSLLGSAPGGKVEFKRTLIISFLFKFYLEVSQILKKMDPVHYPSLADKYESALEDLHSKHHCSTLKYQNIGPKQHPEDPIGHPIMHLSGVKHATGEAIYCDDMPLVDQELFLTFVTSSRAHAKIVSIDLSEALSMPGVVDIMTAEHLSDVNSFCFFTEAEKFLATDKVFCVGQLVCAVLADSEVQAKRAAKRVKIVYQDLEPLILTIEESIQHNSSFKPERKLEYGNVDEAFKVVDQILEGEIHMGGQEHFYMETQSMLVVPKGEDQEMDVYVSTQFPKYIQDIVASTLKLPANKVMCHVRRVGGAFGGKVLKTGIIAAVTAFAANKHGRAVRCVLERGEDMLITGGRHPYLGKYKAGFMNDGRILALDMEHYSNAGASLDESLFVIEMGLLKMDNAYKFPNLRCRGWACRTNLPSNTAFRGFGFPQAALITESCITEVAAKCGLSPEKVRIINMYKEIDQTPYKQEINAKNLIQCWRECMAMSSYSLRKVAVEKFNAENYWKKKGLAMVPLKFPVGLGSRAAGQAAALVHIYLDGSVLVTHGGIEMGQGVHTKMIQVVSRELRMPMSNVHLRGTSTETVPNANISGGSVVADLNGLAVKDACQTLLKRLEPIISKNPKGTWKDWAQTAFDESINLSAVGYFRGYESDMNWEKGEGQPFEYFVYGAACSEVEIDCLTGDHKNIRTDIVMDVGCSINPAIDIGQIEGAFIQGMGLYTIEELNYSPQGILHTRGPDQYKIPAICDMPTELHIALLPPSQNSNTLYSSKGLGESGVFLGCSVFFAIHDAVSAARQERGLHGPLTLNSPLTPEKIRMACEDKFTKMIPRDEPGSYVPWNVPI

Aldehyde oxidase [2] = biological target: T1, Aldehyde oxidase; test: Drug level in human liver S9 fraction assessed as aldehyde oxidase-mediated compound formation treated with 10 uM N-carbamimidoyl-5-cyclopropyl-1-(quinolin-6-yl)-1H-pyrazole-4-carboxamide by spectrometry
Aldehyde oxidase [3] = biological target: T1, Aldehyde oxidase; test: Drug level in human liver S9 fraction assessed as aldehyde oxidase-mediated compound formation treated with 10 uM N-carbamimidoyl-5-cyclopropyl-1-(quinolin-4-yl)-1H-pyrazole-4-carboxamide by spectrometry

Drug metabolism (Aldehyde oxidase [1]): metabolite_detected
Compound: N=C(N)NC(=O)c1cnn(-c2cccc3[nH]c(=O)[nH]c23)c1C1CC1

Drug metabolism (Aldehyde oxidase [2]): metabolite_detected
Compound: N=C(N)NC(=O)c1cnn(-c2ccc3[nH]c(=O)ccc3c2)c1C1CC1

Drug metabolism (Aldehyde oxidase [3]): metabolite_detected
Compound: N=C(N)NC(=O)c1cnn(-c2cc(=O)[nH]c3ccccc23)c1C1CC1
